Measured values: publication PMC8301602 (AIChE journal. American Institute of Chemical Engineers, 2020)
Where two headings read alike, the source gives them in different places.

Key:
iLOV = iLOV (Arabidopsis thaliana, UniProt P93025, S394T/S409G/C426A/I452T/F470L/M475V); test: fluorescence titration of apo protein, emission at […] nm; assay type: binding; settings: PBS; noncooperative 1:1 fit, protein concentration fitted
EcFbFP = target: T1, EcFbFP (Bacillus subtilis, UniProt O34627, C62A); test: as above; assay type: binding
T1 sequence (O34627 1-137 C62A limits assumed): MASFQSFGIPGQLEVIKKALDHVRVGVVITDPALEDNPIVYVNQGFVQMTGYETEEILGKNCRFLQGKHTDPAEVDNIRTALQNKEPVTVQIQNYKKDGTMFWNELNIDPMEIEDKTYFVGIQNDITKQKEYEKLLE

EcFbFP (B. subtilis) [1] = test: SEC
EcFbFP (B. subtilis) [2] = test: SEC; remark: listed apart in the source

Chain of iLOV (P93025 387-496 S394T/S409G/C426A/I452T/F470L/M475V limits assumed): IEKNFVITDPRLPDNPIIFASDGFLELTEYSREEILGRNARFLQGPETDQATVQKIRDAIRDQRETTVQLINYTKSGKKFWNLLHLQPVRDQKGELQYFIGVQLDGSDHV

| stoichiometry N (EcFbFP (B. subtilis) [1]) | stoichiometry N (EcFbFP (B. subtilis) [2]) | Compound | Kd (iLOV) [nM] | Kd (EcFbFP) [nM] |
| --- | --- | --- | --- | --- |
| – | – | Cc1cc2nc3c(=O)[nH]c(=O)nc-3n(C[C@H](O)[C@H](O)[C@H](O)COP(=O)(O)OP(=O)(O)OC[C@H]3O[C@@H](n4cnc5c(N)ncnc54)[C@H](O)[C@@H]3O)c2cc1C [FAD] | 180 ± 30 | 130 ± 20 |
| – | – | Cc1cc2nc3c(=O)[nH]c(=O)nc-3n(C[C@H](O)[C@H](O)[C@H](O)COP(=O)(O)O)c2cc1C [FMN] | 230 ± 20 | 180 ± 30 |
| – | – | Cc1cc2nc3c(=O)[nH]c(=O)nc-3n(C[C@H](O)[C@H](O)[C@H](O)CO)c2cc1C [riboflavin] | 890 ± 170 | 760 ± 150 |
| 2 | 2 | EcFbFP | – | – |
